# Assay: Antioxidant activity against copper-induced lipid peroxidation in human LDL after 1 hr relative to probucol
# Format: functional
row,Structure (SMILES),Activity [%]
1,COc1cc(CCc2cc(OC)c(O)c(OC)c2)ccc1O,7.8
2,COc1cc(CCc2ccc(O)c(OC)c2)cc(OC)c1,0.9
3,CC(C)(Sc1cc(C(C)(C)C)c(O)c(C(C)(C)C)c1)Sc1cc(C(C)(C)C)c(O)c(C(C)(C)C)c1,1
4,COC1=CC(=O)c2ccc3cc(OC)cc(O)c3c2C1=O,0.4
5,CCOC1=CC(=O)c2ccc3cc(OC)cc(O)c3c2C1=O,0.2
6,Oc1ccc(/C=C/c2cc(O)cc(O)c2)cc1,0.7
7,COC1=Cc2ccc3cc(O)ccc3c2C(=O)C1(O)CC(C)=O (configuration not stated),5.3

# Reference: ChEMBL document CHEMBL1144105, “Antioxidant principles from Ephemerantha lonchophylla” (J Nat Prod, 1999)
